From patent US5459257A, “Sulfated oligoglycoside acylate and antiviral agent containing the same as active ingredient” (priority 1993, dated 1995)
Like-named read-outs stand apart in the source and are kept apart here.

Key:
HIV [1] = assay: anti-HIV activity, inhibition of HIV-induced cytopathicity in MT-4 cells (MTT method); format: cell-based
Procedure: (§1) A test compound having various concentrations were placed in a 96-well microtiter plate along with HIV-infected MT-4 cells (2.5×10^4 /well, MOI (multiplicity of infection): 0.01) immediately after infection thereof. In order to ascertain the cytotoxicty of the test compound with respect to MT-4 cells, mock-infected (non-infected) cells were cultured in an identical manner along with the test compound of various concentrations. After incubating for 5 days at 37° C. in a CO2 atmosphere, the number of living cells were determined by using MTT method. The anti-HIV activity was evaluated with the method written by R. Pauwels, et al. (R. Pauwels, et al., J. Virol Methods, 20, 309 to 321 (1988)).
The anti-HIV activity is shown in terms of EC50 (50% effective concentration) that is the concentration of a compound which inhibits 50% of HIV-induced cytopathicity in MT-4 cells, and the cytotoxity is shown in terms of CC50 (cytotoxic concentration) that is the concentration of a compound which reduces 50% of viability of mock-infected MT-4 cells. Selectivity Index (S.I.) is expressed by the ratio of CC50 to EC50 (CC50 /EC50).

MT-4 cells = assay: cytotoxicity in mock-infected MT-4 cells (MTT method); format: cell-based; conditions: mock-infected MT-4 cells, 5 days, 37° C.; 7200 min
Procedure: as §1, with “method.” for “method. The anti-HIV activity was evaluated with the method written by R. Pauwels, et al. (R. Pauwels, et al., J. Virol Methods, 20, 309 to 321 (1988)).”
Selectivity Index (S.I.) is expressed by the ratio of CC50 to EC50 (CC50 /EC50).

HIV [2] = assay: anti-HIV activity of serum after oral administration to mice; format: in vivo; conditions: for reciprocal number of concentration at 50% cell viability: mouse serum
Procedure: The effects of orally administration of Compound 1 in vivo experiment were studied by duration of the activity using mouse.
Compound 1 was dissolved with distilled water at the concentrations of 500 mg/10 ml and 1000 mg/10 ml.
(§2) Mouse (Crj:CD-1(ICR)) (supplier: Charles River Japan, Inc.), six weeks old were used for this study.
Three groups (for 1, 2 and 3 hours) of mice (one group: three mice) were used for the in vivo experiments. Nine mice were given an orally administered of Compound 1 at a dose of 500 mg/kg or 1.0 g/kg.
At decided times after administration, the blood was collected and the serum was collected by centrifugation at low speed.
The serum samples were stored at -80° C. until assayed.
Each serum sample was diluted to evaluate the effective concentration with culture medium. The evaluation method was the same as described the section of Anti-HIV activity.

rabbit blood [3] = assay: effects on blood clotting, whole blood clotting time; conditions: for clotting time: rabbit whole blood
Procedure: (§3) Sodium heparin (Kodama) used as positive control was diluted with saline at the concentration of 120 U/ml.
(§4) Japan White rabbits (supplier: Kitayama Labes), 4 months old, were used for this study.
(§5) Cardiopuncture was performed in a rabbit, and at when blood was started to be flowed into the syringe, the timer was made to start. The whole blood collected was carefully flowed into double glass tubes incubated. After putting the samples calmly for 3 minutes, the first tube was tilted gently every 30 seconds and the current of blood was observed. When blood in the first tube was clotted, the same operation was performed in the second tube. When the blood was clotted in the second tube, the timer was stopped, and this end point was recorded as whole blood clotting time.

HIV [4] = assay: anti-HIV activity of serum after intravenous administration to mice; format: in vivo; conditions: for reciprocal number of concentration of dextran sulfate at 50% cell viability: mouse serum, 80 mg/kg
Procedure: The effects of Compound 6 and dextran sulfate in vivo experiment were studied by duration of the activity using mouse.
Compound 6 were dissolved with saline at the concentration of 32 mg/10 ml. Dextran sulfate (Control compound: M.W=8000: Sigma) were dissolved with it at the concentration of 80 mg/10 ml.
as §2
Four groups (for 1, 4, 6 and 12 hours) of mice (one group: three mice) were used for the in vivo experiments of the Compound 6.
The twelve mice were given an intravenous injection of the compound (in the tail vein; Dose 32 mg/kg).
Three groups (for 20, 40 and 60 minutes) of mice (one group: two mice) were used for dextran sulfate such a method as described in Compound 6 (Dose 80 mg/kg). At decided times after injection, the blood was collected and serum was separated by centrifugation at low speed.
The serum samples were stored at -80° C. until assayed. Each serum sample was diluted with culture medium to evaluate the effective concentration (the maximum concentration was set up to 10%). The method of this anti-HIV activity evaluation was the same one as described in EXAMPLE 49.
(*)Various concentration of the serum solutions (diluted with the medium
and the maximum concentration is 10%) were used for evaluation of the
shown. That is why the higher the reciprocal number, the higher the […]

rabbit blood [5] = system: rabbit blood
Procedure: as §3, §4, §5

[6] = in vivo; cited from earlier work

Substance | EC50 (HIV [1]; HIV-infected MT-4 cells, MOI 0.01, 5 days, 37° C.) [mg/L] | S.I. (CC50/EC50) (HIV [1]; MT-4 cells, ratio of CC50 to EC50, 7200 min) | CC50 (MT-4 cells) [mg/L] | reciprocal number of concentration at 50% cell viability (HIV [2]; 1 hour after oral administration, 500 mg/kg) | reciprocal number of concentration at 50% cell viability (HIV [2]; 1 hour after oral administration, 1.0 g/kg) | reciprocal number of concentration at 50% cell viability (HIV [2]; 2 hours after oral administration, 500 mg/kg) | reciprocal number of concentration at 50% cell viability (HIV [2]; 2 hours after oral administration, 1.0 g/kg) | reciprocal number of concentration at 50% cell viability (HIV [2]; 3 hours after oral administration, 500 mg/kg) | reciprocal number of concentration at 50% cell viability (HIV [2]; 3 hours after oral administration, 1.0 g/kg) | detection of activity in serum after oral administration (HIV [2]; mouse, oral, 500 mg/kg or 1.0 g/kg) | comparing strength of effects on blood clotting (rabbit blood [3]; at the concentration of more than 0.1%) | clotting time (rabbit blood [3]; 0.01%) [min] | clotting time (rabbit blood [3]; 0.1%) [min] | clotting time (rabbit blood [3]; 1.0%) [min] | reciprocal number of concentration of dextran sulfate at 50% cell viability (HIV [4]; 20 min after i.v. injection) | reciprocal number of concentration of dextran sulfate at 50% cell viability (HIV [4]; 40 min after i.v. injection) | reciprocal number of concentration of dextran sulfate at 50% cell viability (HIV [4]; 60 min after i.v. injection) | detection/duration of activity in serum (HIV [4]; mouse, i.v., Compound 6 32 mg/kg up to 12 hours, dextran sulfate 80 mg/kg up to 60 min) | comparing strength of effects on blood clotting (rabbit blood [5]) | absorption after oral administration [6]
Sulfated n-dodecyl O-benzoyl-β-D-laminaripentaoside [Compound 1] | 3.2 | 254 | 814 | 15.9 | 55.6 | 19.2 | 83.8 | 26.7 | 54.1 | detected at a high concentration | dextran sulfate>1>6 | 8.0 ± 0.5 | 8.3 ± 0.7 | 27.3 ± 3.0 |  |  |  |  |  | 
dextran sulfate |  |  |  |  |  |  |  |  |  |  |  |  |  |  | < 10 | < 10 | < 10 | could not be detected | dextran sulfate>1>6 | poorly absorbed
